How the values were obtained:
[1] = 101 kPa, Liquid; for viscosity: Falling or rolling sphere viscometry; for mass density: Vibrating tube method
[2] = xn = mol fraction of the nth substance listed; details: 101 kPa, Liquid; for viscosity: Falling or rolling sphere viscometry; for mass density: Vibrating tube method

CCn1cc[n+](C)c1.N#C[C-](C#N)C#N [1-ethyl-3-methyl-1H-imidazolium tricyanomethanide]
[1]
Details	mass density [kg/m3]	viscosity [mPa·s]
293.15 K	1085.2	17.72
303.15 K	1078.1	12.88
313.15 K	1071.1	9.8
323.15 K	1064.1	7.73
333.15 K	1057.2	5.93
343.15 K	1050.4	4.91
353.15 K	1043.6	4.15

CCn1cc[n+](C)c1.N#C[C-](C#N)C#N [1-ethyl-3-methyl-1H-imidazolium tricyanomethanide] + CCn1cc[n+](C)c1.N#CN=C=[N-]
[2]
Details	mass density, x1 = 0.2 [kg/m3]	mass density, x1 = 0.4 [kg/m3]	mass density, x1 = 0.6 [kg/m3]	mass density, x1 = 0.8 [kg/m3]	mass density, x1 = 1 [kg/m3]	viscosity, x1 = 0.2 [mPa·s]	viscosity, x1 = 0.4 [mPa·s]	viscosity, x1 = 0.6 [mPa·s]	viscosity, x1 = 0.8 [mPa·s]	viscosity, x1 = 1 [mPa·s]
293.15 K	1099.9	1095.8	1091.9	1088.4	1085.2	17.55	17.59	17.6	17.64	17.72
303.15 K	1093.2	1088.9	1085	1081.4	1078.1	13.05	13.02	13.01	12.89	12.88
313.15 K	1086.5	1082.2	1078.1	1074.5	1071.1	10.12	10.05	10.02	9.89	9.8
323.15 K	1079.9	1075.5	1071.3	1067.6	1064.1	7.92	7.84	7.8	7.77	7.73
333.15 K	1073.4	1068.8	1064.6	1060.8	1057.2	6.26	6.22	6.19	6.15	5.93
343.15 K	1066.9	1062.3	1057.9	1054.1	1050.4	5.23	5.21	5.2	5.1	4.91
353.15 K	1060.5	1055.7	1051.3	1047.4	1043.6	4.44	4.42	4.38	4.32	4.15

CCn1cc[n+](C)c1.N#CN=C=[N-] [1-ethyl-3-methylimidazolium dicyanamide]
[1]
Details	mass density [kg/m3]	viscosity [mPa·s]
293.15 K	1104.6	17.54
303.15 K	1098	13.11
313.15 K	1091.4	10.17
323.15 K	1084.9	8.13
333.15 K	1078.5	6.66
343.15 K	1072.1	5.58
353.15 K	1065.8	4.75

CCn1cc[n+](C)c1.N#CN=C=[N-] [1-ethyl-3-methylimidazolium dicyanamide] + CCn1cc[n+](C)c1.N#C[C-](C#N)C#N
[2], x2 = 0
Details	mass density [kg/m3]	viscosity [mPa·s]
293.15 K	1104.6	17.54
303.15 K	1098	13.11
313.15 K	1091.4	10.17
323.15 K	1084.9	8.13
333.15 K	1078.5	6.66
343.15 K	1072.1	5.58
353.15 K	1065.8	4.75
